Here are results for three compounds from patent US9353072B2, “Antimicrobial substituted thiazoles and methods of use” (Purdue Research Foundation, priority 2012, dated 2016).

Converted amounts (≈) assume the structure as drawn. Like-named read-outs stand apart in the source and are kept apart here.

Assay [1] relates to MRSA ATCC 700699 (NRS1, VISA). Kind of assay: MIC/MBC broth microdilution, NRS1 (ATCC 700699). Format: cell-based. To be noted: Staphylococcus aureus. How it is done: (§1) Determination of minimum inhibitory concentration (MIC). The MICs of the lead thiazole compound (compound 1a) and nine derivatives tested against all 18 MRSA strains were determined, in triplicate samples, using the broth microdilution method in accordance with the recommendations contained in the CLSI guidelines.
In general terms: Dilution methods test growth across graded concentrations, often in twofold steps.

In assay [2] the test system is MRSA USA400 (NRS123). Kind of assay: MIC/MBC broth microdilution, NRS123 (USA400). Format: cell-based. To be noted: Staphylococcus aureus, Table 8, NRS123; for MIC: read-out: MIC; for MBC: read-out: MBC. As for the experimental part: as §1
For assay [3], the system named is VISA LIM 3 (NRS37). Put plainly: MIC/MBC broth microdilution, NRS37 (VISA LIM 3). It is filed as cell-based. To be noted: Staphylococcus aureus, Table 8, NRS37 (VISA); for MIC: read-out: MIC; for MBC: read-out: MBC. As for the experimental part: as §1
Assay [4] concerns NRS107. Kind of assay: MIC/MBC broth microdilution, NRS107. To be noted: Staphylococcus aureus; for MIC: Table 8, read-out: MIC; for MBC: Table 8, read-out: MBC. It is filed as cell-based. As for the experimental part: as §1
Assay [5] has as its system NRS194. Put plainly: MIC/MBC broth microdilution, NRS194. It is filed as cell-based. As to conditions: Staphylococcus aureus; for MIC: Table 8, read-out: MIC; for MBC: Table 8, read-out: MBC. How it is done: as §1
Assay [6] has as its system MRSA USA500 (NRS385). Kind of assay: MIC/MBC broth microdilution, NRS385 (USA500). Format: cell-based. As to conditions: Staphylococcus aureus, Table 8, NRS385; for MIC: read-out: MIC; for MBC: read-out: MBC. How it is done: as §1
Assay [7] deals with MRSA ATCC 43300. Kind of assay: MIC/MBC broth microdilution, MRSA ATCC 43300. Format: cell-based, Staphylococcus aureus. To be noted: Staphylococcus aureus. How it is done: as §1
In assay [8] the test system is VISA HIP07256 (NRS19). Put plainly: MIC/MBC broth microdilution, NRS19 (VISA HIP07256). Format: cell-based. To be noted: Staphylococcus aureus, Table 8, NRS19 (VISA); for MIC: read-out: MIC; for MBC: read-out: MBC. As for the experimental part:
as §1

Assay [9] has as its system NRS119. Put plainly: MIC/MBC broth microdilution, NRS119. As to conditions: Staphylococcus aureus. Format: cell-based. How it is done:
as §1

Assay [10] has as its system MRSA NRS384 (USA300). Put plainly: MIC/MBC broth microdilution, NRS384 (USA300). It is filed as cell-based. To be noted: Staphylococcus aureus, Table 8, NRS384; for MIC: read-out: MIC; for MBC: read-out: MBC. As for the experimental part: as §1
Assay [11] has as its system VRSA (VRS10). Put plainly: MIC/MBC broth microdilution, VRSA (VRS10). It is filed as cell-based, Staphylococcus aureus. As to conditions: Staphylococcus aureus, Table 7, VRSA (VRS10); for MBC: read-out: Minimum Bactericidal Concentration; for MIC: read-out: Minimum Inhibitory Concentration. How it is done: as §1
Setting [12] is: Table 8, NRS1 (VISA), triplicates, 20 hours, read-out: MIC.
The mark [13] stands for this setting: Table 6, MRSA ATCC 43300, 128 μM down to 1.0 μM, 20 hours, read-out: MIC.
Setting [14] is: Table 8, ATCC 43300, read-out: MIC.
Setting [15] is: Table 7, VISA (NRS1), read-out: Minimum Bactericidal Concentration.
[16] abbreviates: Table 7, VISA (NRS1), read-out: Minimum Inhibitory Concentration.
The mark [17] stands for this setting: Table 8, NRS1 (VISA), read-out: MBC.
[18] abbreviates: Table 6, MRSA ATCC 43300, plating on TSA, 20 hour incubation, read-out: MBC.
The mark [19] stands for this setting: Table 7, MRSA (ATCC 43300), read-out: Minimum Bactericidal Concentration.
The mark [20] stands for this setting: Table 7, MRSA (ATCC 43300), read-out: Minimum Inhibitory Concentration.
[21] abbreviates: Table 8, ATCC 43300, read-out: MBC.
Setting [22] is: NRS 119 / VISA, Table 7, VISA (NRS119), read-out: Minimum Bactericidal Concentration.
Where [23] appears, read: NRS 119 / VISA, Table 7, VISA (NRS119), read-out: Minimum Inhibitory Concentration.

As to `CC(=O)c1sc(-c2ccc(-c3ccc(C(F)(F)F)cc3)cc2)nc1C` [Compound M10, 1-(4-methyl-2-(4′-(trifluoromethyl)-[1,1′-biphenyl]-4-yl)thiazol-5-yl)ethanone], the MIC in assay [1] (setting [12]), in assay [2], in [3], in [4], in assay [5] and in assay [6] was above 128 µM each time. The MIC in assay [7] (setting [13]) is above 128 µM; in assay [7] (setting [14]), above 128 µM; in assay [8] it was above 128 µM; in [9] (Table 8, NRS119, read-out: MIC), above 128 µM; in [10] it was above 128 µM.
For `CC(=O)c1ccc(-c2ccc(-c3nc(C)c(/C(C)=N\NC(=N)N)s3)cc2)cc1` [Compound M11, (Z)-2-(1-(2-(4′-acetyl-[1,1′-biphenyl]-4-yl)-4-methylthiazol-5-yl)ethylidene)hydrazinecarboximidamide], the MBC in assay [1] (setting [15]) turned out to be 32 µM (≈ 12.5 µg/mL); in assay [1] (setting [17]), 16 µM (≈ 6.26 µg/mL); in [2] it was 16 µM (≈ 6.26 µg/mL); in assay [11], 16 µM (≈ 6.26 µg/mL); in assay [3], 16 µM (≈ 6.26 µg/mL); in assay [4], 32 µM (≈ 12.5 µg/mL). Besides, the MBC in assay [5] is 16 µM (≈ 6.26 µg/mL); in [6] it was 16 µM (≈ 6.26 µg/mL); in assay [7] (setting [18]), 8 µM (≈ 3.13 µg/mL); in assay [7] (setting [19]), 8 µM (≈ 3.13 µg/mL); in assay [7] (setting [21]), 16 µM (≈ 6.26 µg/mL); in [8] it was 32 µM (≈ 12.5 µg/mL). In addition, the MBC in assay [9] (setting [22]) was 32 µM (≈ 12.5 µg/mL); in assay [9] (Table 8, NRS119, read-out: MBC), 32 µM (≈ 12.5 µg/mL); in assay [10] it was 16 µM (≈ 6.26 µg/mL). In addition, the MIC in [1] (setting [16]) was found to be 8 µM (≈ 3.13 µg/mL); in assay [1] (setting [12]), 16 µM (≈ 6.26 µg/mL); in assay [2] it was 16 µM (≈ 6.26 µg/mL); in assay [11], 16 µM (≈ 6.26 µg/mL); in [3], 8 µM (≈ 3.13 µg/mL); in assay [4], 16 µM (≈ 6.26 µg/mL). In addition, the MIC in assay [5] is 16 µM (≈ 6.26 µg/mL); in assay [6] it was 16 µM (≈ 6.26 µg/mL); in assay [7] (setting [13]), 4 µM (≈ 1.57 µg/mL); in assay [7] (setting [20]), 8 µM (≈ 3.13 µg/mL); in [7] (setting [14]), 16 µM (≈ 6.26 µg/mL); in [8], 32 µM (≈ 12.5 µg/mL). Also, the MIC in assay [9] (setting [23]) was found to be 16 µM (≈ 6.26 µg/mL); in [9] (Table 8, NRS119, read-out: MIC), 16 µM (≈ 6.26 µg/mL); in [10] it was 16 µM (≈ 6.26 µg/mL).
For `C/C(=N/NC(=N)N)c1sc(-c2ccc(-c3ccc(F)cc3)cc2)nc1C` [Compound M12, (Z)-2-(1-(2-(4′-fluoro-[1,1′-biphenyl]-4-yl)-4-methylthiazol-5-yl)ethylidene)hydrazinecarboximidamide], the MBC came out at 8 µM (≈ 2.94 µg/mL) in assay [1] (setting [15]); 8 µM (≈ 2.94 µg/mL) in assay [1] (setting [17]); 32 µM (≈ 11.8 µg/mL) in assay [2]; 64 µM (≈ 23.5 µg/mL) in assay [11]; 16 µM (≈ 5.88 µg/mL) in assay [3]; 16 µM (≈ 5.88 µg/mL) in assay [4]. The MBC in assay [5] is 32 µM (≈ 11.8 µg/mL); in [6], 16 µM (≈ 5.88 µg/mL); in assay [7] (setting [18]), above 16 µM; in assay [7] (setting [19]), 16 µM (≈ 5.88 µg/mL); in assay [7] (setting [21]), 16 µM (≈ 5.88 µg/mL); in [8], 16 µM (≈ 5.88 µg/mL). The MBC in [9] (setting [22]) came out at 16 µM (≈ 5.88 µg/mL); in [9] (Table 8, NRS119, read-out: MBC), 32 µM (≈ 11.8 µg/mL); in assay [10], 16 µM (≈ 5.88 µg/mL). In addition, the MIC was 4 µM (≈ 1.47 µg/mL) in [1] (setting [16]); 8 µM (≈ 2.94 µg/mL) in [1] (setting [12]); 16 µM (≈ 5.88 µg/mL) in assay [2]; 8 µM (≈ 2.94 µg/mL) in assay [11]; 8 µM (≈ 2.94 µg/mL) in assay [3]; 8 µM (≈ 2.94 µg/mL) in assay [4]. The MIC was found to be 16 µM (≈ 5.88 µg/mL) in assay [5]; 16 µM (≈ 5.88 µg/mL) in [6]; 4 µM (≈ 1.47 µg/mL) in assay [7] (setting [13]); 4 µM (≈ 1.47 µg/mL) in [7] (setting [20]); 16 µM (≈ 5.88 µg/mL) in [7] (setting [14]); 16 µM (≈ 5.88 µg/mL) in [8]. Moreover, the MIC in [9] (setting [23]) amounted to 16 µM (≈ 5.88 µg/mL); in [9] (Table 8, NRS119, read-out: MIC) it was 16 µM (≈ 5.88 µg/mL); in assay [10], 16 µM (≈ 5.88 µg/mL).
